# Reference: ChEMBL document CHEMBL4265943, “Design and synthesis of potent dual inhibitors of JAK2 and HDAC based on fusing the pharmacophores of XL019 and vorinostat” (Eur J Med Chem, 2018)
# Tests used:
# [1] = target: Tyrosine-protein kinase JAK2 (Homo sapiens, UniProt O60674); test: Inhibition of human JAK2 using poly(Glu:Tyr)(4:1) as substrate preincubated for 20 mins followed by [gamma33P]ATP addition measured after 120 mins by ion exchange filter paper method
# Histone deacetylase 1 = Histone deacetylase 1 (Homo sapiens, UniProt Q13547); test: Inhibition of HDAC1 (unknown origin) using Arg-His-Lys-Lys(Ac) as substrate preincubated with enzyme followed by substrate addition for 2 hrs and measured for 1.5 hrs at 15 mins time interval by fluorescence assay
# [2] = target: T1, Protein deacetylase HDAC6 (Homo sapiens, UniProt Q9UBN7); test: Inhibition of HDAC6 (unknown origin) using Arg-His-Lys-Lys(Ac) as substrate preincubated with enzyme followed by substrate addition for 2 hrs and measured for 1.5 hrs at 15 mins time interval by fluorescence assay
# T1 sequence (Q9UBN7 whole entry): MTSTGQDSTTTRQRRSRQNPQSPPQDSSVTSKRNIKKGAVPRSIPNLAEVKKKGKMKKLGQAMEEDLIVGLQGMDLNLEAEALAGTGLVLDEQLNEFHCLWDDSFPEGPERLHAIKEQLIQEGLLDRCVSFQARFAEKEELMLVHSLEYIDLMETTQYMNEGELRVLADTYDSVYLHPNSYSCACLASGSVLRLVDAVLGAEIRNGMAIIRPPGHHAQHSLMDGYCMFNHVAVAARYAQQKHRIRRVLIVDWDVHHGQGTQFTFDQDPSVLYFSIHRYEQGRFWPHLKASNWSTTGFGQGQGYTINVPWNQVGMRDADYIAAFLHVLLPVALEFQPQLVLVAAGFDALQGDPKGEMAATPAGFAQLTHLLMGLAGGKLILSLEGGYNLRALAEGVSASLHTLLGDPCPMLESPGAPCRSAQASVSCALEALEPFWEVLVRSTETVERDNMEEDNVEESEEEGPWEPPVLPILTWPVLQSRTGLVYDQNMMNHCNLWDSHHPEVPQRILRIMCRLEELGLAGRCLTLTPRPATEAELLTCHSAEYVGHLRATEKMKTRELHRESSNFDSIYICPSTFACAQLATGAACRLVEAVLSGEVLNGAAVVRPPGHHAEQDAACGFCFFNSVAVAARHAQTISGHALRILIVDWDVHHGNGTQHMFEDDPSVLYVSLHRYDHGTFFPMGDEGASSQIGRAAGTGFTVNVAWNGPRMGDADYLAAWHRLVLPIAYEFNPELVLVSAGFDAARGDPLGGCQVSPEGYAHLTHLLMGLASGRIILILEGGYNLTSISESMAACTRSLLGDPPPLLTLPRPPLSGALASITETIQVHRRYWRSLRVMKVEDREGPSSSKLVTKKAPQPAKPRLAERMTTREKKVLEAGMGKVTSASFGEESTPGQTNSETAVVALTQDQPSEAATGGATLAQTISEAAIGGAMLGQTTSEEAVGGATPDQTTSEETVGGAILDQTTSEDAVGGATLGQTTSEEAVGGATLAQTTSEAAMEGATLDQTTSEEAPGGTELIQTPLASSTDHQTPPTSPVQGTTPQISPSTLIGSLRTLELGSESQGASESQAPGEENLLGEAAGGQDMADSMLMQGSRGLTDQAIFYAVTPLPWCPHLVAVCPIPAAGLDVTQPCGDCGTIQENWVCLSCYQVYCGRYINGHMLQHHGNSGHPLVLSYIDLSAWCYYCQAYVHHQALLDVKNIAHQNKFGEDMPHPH
# HCT-116 = test: Antiproliferative activity against human HCT116 cells after 72 hrs by MTT assay; format: functional, cell-based; conditions: HCT-116, 72 h
# MDA-MB-231 = test: Antiproliferative activity against human MDA-MB-231 cells after 72 hrs by MTT assay; format: functional, cell-based; conditions: MDA-MB-231, 72 h
# MCF7 = test: Antiproliferative activity against human MCF7 cells after 72 hrs by MTT assay; format: functional, cell-based; conditions: MCF7, 72 h
# PC-3 = test: Antiproliferative activity against human PC3 cells after 72 hrs by MTT assay; format: functional, cell-based; conditions: PC-3, 72 h
# [3] = Antiproliferative activity against human AC10 cells after 72 hrs by MTT assay; format: cell-based
# [4] = Antiproliferative activity against mouse TAMH cells after 72 hrs by MTT assay; format: cell-based
# [5] = Selectivity index, ratio of CC50 for human AC10 cells to IC50 for human HCT116 cells; format: toxicity; conditions: AC10 cells (CC50) and HCT116 cells (IC50)
# [6] = Selectivity index, ratio of CC50 for mouse TAMH cells to IC50 for human HCT116 cells; format: toxicity; conditions: TAMH cells (CC50) and HCT116 cells (IC50)
# [7] = Selectivity index, ratio of CC50 for human AC10 cells to IC50 for human MDA-MB-231 cells; format: toxicity; conditions: AC10 cells (CC50) and MDA-MB-231 cells (IC50)
# [8] = Selectivity index, ratio of CC50 for mouse TAMH cells to IC50 for human MDA-MB-231 cells; format: toxicity; conditions: TAMH cells (CC50) and MDA-MB-231 cells (IC50)
# [9] = Selectivity index, ratio of CC50 for human AC10 cells to IC50 for human MCF7 cells; format: toxicity; conditions: AC10 cells (CC50) and MCF7 cells (IC50)
# [10] = Selectivity index, ratio of CC50 for mouse TAMH cells to IC50 for human MCF7 cells; format: toxicity; conditions: TAMH cells (CC50) and MCF7 cells (IC50)
# [11] = Selectivity index, ratio of CC50 for human AC10 cells to IC50 for human PC3 cells; format: toxicity; conditions: AC10 cells (CC50) and PC3 cells (IC50)
# [12] = Selectivity index, ratio of CC50 for mouse TAMH cells to IC50 for human PC3 cells; format: toxicity; conditions: TAMH cells (CC50) and PC3 cells (IC50)
# Tyrosine-protein kinase JAK2, sequence (O60674 whole entry): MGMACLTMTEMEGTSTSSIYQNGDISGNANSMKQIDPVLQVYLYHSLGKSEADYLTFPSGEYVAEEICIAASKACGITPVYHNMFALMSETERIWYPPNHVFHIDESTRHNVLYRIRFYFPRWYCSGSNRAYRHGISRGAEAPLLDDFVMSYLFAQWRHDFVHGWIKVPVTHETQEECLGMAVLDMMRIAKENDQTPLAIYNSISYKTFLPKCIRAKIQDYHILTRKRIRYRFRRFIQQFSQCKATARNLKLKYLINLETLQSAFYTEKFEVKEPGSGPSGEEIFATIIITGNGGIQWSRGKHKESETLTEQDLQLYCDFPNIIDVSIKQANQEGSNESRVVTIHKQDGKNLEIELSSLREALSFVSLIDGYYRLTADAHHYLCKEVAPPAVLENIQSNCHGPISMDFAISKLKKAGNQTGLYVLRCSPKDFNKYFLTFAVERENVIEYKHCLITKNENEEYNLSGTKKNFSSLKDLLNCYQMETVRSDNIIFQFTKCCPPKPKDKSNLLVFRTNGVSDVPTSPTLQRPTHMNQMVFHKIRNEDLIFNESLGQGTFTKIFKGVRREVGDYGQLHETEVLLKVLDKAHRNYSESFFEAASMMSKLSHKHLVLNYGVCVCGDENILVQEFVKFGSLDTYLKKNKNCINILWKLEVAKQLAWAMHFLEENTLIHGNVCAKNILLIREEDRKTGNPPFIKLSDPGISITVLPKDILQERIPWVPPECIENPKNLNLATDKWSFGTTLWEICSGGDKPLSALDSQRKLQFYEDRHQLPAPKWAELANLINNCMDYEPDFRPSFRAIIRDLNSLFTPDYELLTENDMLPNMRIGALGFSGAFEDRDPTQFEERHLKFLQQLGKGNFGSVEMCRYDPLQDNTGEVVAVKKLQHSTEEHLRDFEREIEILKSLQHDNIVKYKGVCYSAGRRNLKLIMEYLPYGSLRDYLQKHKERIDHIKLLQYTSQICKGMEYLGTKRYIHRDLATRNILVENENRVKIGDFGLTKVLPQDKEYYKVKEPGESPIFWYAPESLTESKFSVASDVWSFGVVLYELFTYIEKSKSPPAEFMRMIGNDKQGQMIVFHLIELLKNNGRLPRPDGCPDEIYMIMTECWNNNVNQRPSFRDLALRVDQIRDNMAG
# Histone deacetylase 1, sequence (Q13547 whole entry): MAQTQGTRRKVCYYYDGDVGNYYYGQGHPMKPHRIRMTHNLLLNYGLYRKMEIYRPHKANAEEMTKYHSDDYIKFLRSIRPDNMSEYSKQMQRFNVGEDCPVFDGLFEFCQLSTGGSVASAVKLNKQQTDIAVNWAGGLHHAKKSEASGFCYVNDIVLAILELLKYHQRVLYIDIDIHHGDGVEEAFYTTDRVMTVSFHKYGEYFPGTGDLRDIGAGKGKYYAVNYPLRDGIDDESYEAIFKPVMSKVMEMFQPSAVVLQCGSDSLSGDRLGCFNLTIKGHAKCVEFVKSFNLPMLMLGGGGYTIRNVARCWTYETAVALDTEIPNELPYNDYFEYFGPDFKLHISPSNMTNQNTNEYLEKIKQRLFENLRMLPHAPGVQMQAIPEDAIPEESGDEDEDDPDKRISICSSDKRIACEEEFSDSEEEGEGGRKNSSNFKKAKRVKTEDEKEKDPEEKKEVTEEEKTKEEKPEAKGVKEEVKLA
Structure (SMILES),IC50 [1],IC50 (Histone deacetylase 1),IC50 [2],IC50 (HCT-116),IC50 (MDA-MB-231),IC50 (MCF7),IC50 (PC-3),CC50 at 72 h [3],CC50 at 72 h [4],selectivity ratio [5],selectivity ratio [6],selectivity ratio [7],selectivity ratio [8],selectivity ratio [9],selectivity ratio [10],selectivity ratio [11],selectivity ratio [12]
CC(=O)Nc1ccc(-c2nc(Nc3cccc(OCCCCCCC(=O)NO)c3)ncc2C)cc1,3.9 nM,155 nM,6.1 nM,1190 nM,1400 nM,1710 nM,2760 nM,4840 nM,3940 nM,4.07,3.31,3.46,2.81,2.83,2.3,1.75,1.43
O=C(CCCCCCC(=O)Nc1ccc(-c2ccnc(Nc3ccccc3)n2)cc1)NO,41.3 nM,3.8 nM,1.44 nM,190 nM,270 nM,330 nM,210 nM,3010 nM,7280 nM,15.8,38.3,11.2,27,9.12,22.1,14.3,34.7
CC(=O)Nc1ccc(-c2ccnc(Nc3ccc(N4CCCCC4)cc3)n2)cc1,2.9 nM,,,,,,,,,,,,,,,,
O=C(CCCCCCC(=O)Nc1ccccc1)NO [VORINOSTAT],,,,,,810 nM,,,,,,,,,,,
CC(=O)Nc1ccc(-c2ccnc(Nc3ccc(NC(=O)CCCCC(=O)NO)cc3)n2)cc1,58.3 nM,3350 nM,117 nM,65600 nM,32100 nM,43400 nM,47300 nM,,,,,,,,,,
CN1CCN(CC(=O)Nc2ccc(-c3ccnc(Nc4cccc(OCCCCCCC(=O)NO)c4)n3)cc2)CC1,109 nM,348 nM,6.8 nM,770 nM,650 nM,1320 nM,1150 nM,6270 nM,5110 nM,8.14,6.64,9.65,7.86,4.75,3.87,5.45,4.44
O=C(CCCCCCOc1ccc2cc1COC/C=C/COCc1cccc(c1)-c1ccnc(n1)N2)NO,,,,,,,1700 nM,,,,,,,,,,
CC(=O)Nc1ccc(-c2ccnc(Nc3cccc(N4CCOCC4)c3)n2)cc1,19.6 nM,,,,,,,,,,,,,,,,
COC(=O)CCCCCCOc1ccc(Nc2nccc(-c3ccc(NC(C)=O)cc3)n2)cc1,239 nM,> 10000 nM,3150 nM,,,,,,,,,,,,,,
Cc1cnc(Nc2ccc(N3CCOCC3)cc2)nc1-c1ccc(NC(=O)CCCCCCC(=O)NO)cc1,,289 nM,3.7 nM,2530 nM,1230 nM,2470 nM,1740 nM,6060 nM,7470 nM,,,,,,,,
O=C(Nc1ccc(-c2ccnc(Nc3ccc(N4CCOCC4)cc3)n2)cc1)[C@@H]1CCCN1,,,,7340 nM,9670 nM,27200 nM,14900 nM,,,,,,,,,,
O=C(CCCCCCC(=O)Nc1ccc(-c2ccnc(Nc3cccc(N4CCCCC4)c3)n2)cc1)NO,6.6 nM,179 nM,9 nM,,,,,5340 nM,4690 nM,3.2,2.81,4.02,3.53,5.04,4.42,7.12,6.25
CC(=O)Nc1ccc(-c2ccnc(Nc3cccc(N4CCCCC4)c3)n2)cc1,13.8 nM,,,,,,,,,,,,,,,,
CC(=O)Nc1ccc(-c2ccnc(Nc3ccc(N4CCN(C)CC4)cc3)n2)cc1,7.9 nM,,,,,,,,,,,,,,,,
O=C(CCCCCCC(=O)Nc1ccc(-c2ccnc(Nc3ccc(N4CCCCC4)cc3)n2)cc1)NO,,934 nM,23 nM,1070 nM,2830 nM,1890 nM,5580 nM,11700 nM,12900 nM,,,,,,,,
